From PubChem BioAssay (NCI)
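Dose response: 5 concentrations. Exposure: 48 h. Format: 96-well plates. Endpoint: linear interpolation; highest concentration if not reached. TGI marks complete inhibition of growth.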

What was measured:
Test in all cases: NCI-60 cell line screen, 48 h
SNB-75 CNS = system: SNB-75 CNS
HS 578T breast = system: HS 578T breast
K-562 leukemia = system: K-562 leukemia
OVCAR-4 ovarian = system: OVCAR-4 ovarian
MDA-N = system: MDA-N
SN12C renal = system: SN12C renal
SK-MEL-2 melanoma = system: SK-MEL-2 melanoma
LOX IMVI melanoma = system: LOX IMVI melanoma
OVCAR-5 ovarian = system: OVCAR-5 ovarian
HCC-2998 colon = system: HCC-2998 colon

Cc1cccc(C2ON=C(c3ccccc3)N2C23CC4CC(CC(C4)C2)C3)c1 (stereo not given)
TGI (SNB-75 CNS): > 10 µM
TGI (HS 578T breast): > 10 µM
TGI (K-562 leukemia): > 10 µM
TGI (OVCAR-4 ovarian): > 10 µM
TGI (MDA-N): > 10 µM
TGI (SN12C renal): > 10 µM
TGI (SK-MEL-2 melanoma): > 10 µM
TGI (LOX IMVI melanoma): > 10 µM
TGI (OVCAR-5 ovarian): > 10 µM
TGI (HCC-2998 colon): > 10 µM

CCOC1OC(CO)C(O)CC1n1ccc(=O)[nH]c1=O (stereo not given)
TGI (SNB-75 CNS): > 100 µM
TGI (HS 578T breast): > 100 µM
TGI (K-562 leukemia): > 100 µM
TGI (OVCAR-4 ovarian): > 100 µM
TGI (MDA-N): > 100 µM
TGI (SN12C renal): > 100 µM
TGI (SK-MEL-2 melanoma): > 100 µM
TGI (LOX IMVI melanoma): > 100 µM
TGI (OVCAR-5 ovarian): > 100 µM
TGI (HCC-2998 colon): > 100 µM

Cn1c(=O)c2[nH]c(N=O)nc2n(C)c1=O
TGI (SNB-75 CNS): > 100 µM
TGI (HS 578T breast): > 100 µM
TGI (K-562 leukemia): > 100 µM
TGI (OVCAR-4 ovarian): > 100 µM
TGI (MDA-N): > 100 µM
TGI (SN12C renal): > 100 µM
TGI (SK-MEL-2 melanoma): > 100 µM
TGI (LOX IMVI melanoma): > 100 µM
TGI (OVCAR-5 ovarian): > 100 µM
TGI (HCC-2998 colon): > 100 µM

CC(C)OC(=O)c1ccc(NCc2cc(O)ccc2O)cc1
TGI (SNB-75 CNS): 18.6 µM
TGI (HS 578T breast): > 29.6 µM
TGI (K-562 leukemia): 6.98 µM
TGI (OVCAR-4 ovarian): 18.7 µM
TGI (MDA-N): 13.2 µM
TGI (SN12C renal): 7.3 µM
TGI (SK-MEL-2 melanoma): 27.8 µM
TGI (LOX IMVI melanoma): 15.9 µM
TGI (OVCAR-5 ovarian): 15.9 µM
TGI (HCC-2998 colon): 28.6 µM

C#CC[C@@H]1C(=O)N(Cc2ccc(OC)cc2)[C@@H](C(C)C)C(=O)N1Cc1ccc(OC)cc1
TGI (SNB-75 CNS): 95 µM
TGI (HS 578T breast): > 100 µM
TGI (K-562 leukemia): > 100 µM
TGI (OVCAR-4 ovarian): > 100 µM
TGI (MDA-N): 67.1 µM
TGI (SN12C renal): > 100 µM
TGI (SK-MEL-2 melanoma): 55.1 µM
TGI (LOX IMVI melanoma): > 100 µM
TGI (OVCAR-5 ovarian): > 100 µM
TGI (HCC-2998 colon): > 100 µM

CC(=O)CCCCn1c(=O)c2c(nc(Br)n2C)n(C)c1=O
TGI (SNB-75 CNS): > 100 µM
TGI (HS 578T breast): > 100 µM
TGI (K-562 leukemia): > 100 µM
TGI (OVCAR-4 ovarian): > 100 µM
TGI (MDA-N): > 100 µM
TGI (SN12C renal): > 100 µM
TGI (SK-MEL-2 melanoma): > 100 µM
TGI (LOX IMVI melanoma): > 100 µM
TGI (OVCAR-5 ovarian): > 100 µM
TGI (HCC-2998 colon): > 100 µM

CSc1ncnc2c1cnn2Cc1cn(COCCO)nn1
TGI (HS 578T breast): > 100 µM
TGI (K-562 leukemia): > 100 µM
TGI (OVCAR-4 ovarian): > 100 µM
TGI (MDA-N): 39.6 µM
TGI (SN12C renal): > 100 µM
TGI (SK-MEL-2 melanoma): > 100 µM
TGI (LOX IMVI melanoma): > 100 µM
TGI (OVCAR-5 ovarian): > 100 µM
TGI (HCC-2998 colon): > 100 µM

CNC(=O)c1n[nH]n(C2CCCCC2)c1=S
TGI (SNB-75 CNS): > 100 µM
TGI (HS 578T breast): > 100 µM
TGI (K-562 leukemia): > 100 µM
TGI (OVCAR-4 ovarian): > 100 µM
TGI (MDA-N): > 100 µM
TGI (SN12C renal): > 100 µM
TGI (SK-MEL-2 melanoma): > 100 µM
TGI (LOX IMVI melanoma): > 100 µM
TGI (OVCAR-5 ovarian): > 100 µM
TGI (HCC-2998 colon): > 100 µM

FC(F)(F)c1ccc(C2ON=C(c3ccccc3)N2C23CC4CC(CC(C4)C2)C3)cc1 (stereo not given)
TGI (SNB-75 CNS): > 10 µM
TGI (HS 578T breast): > 10 µM
TGI (K-562 leukemia): > 10 µM
TGI (OVCAR-4 ovarian): > 10 µM
TGI (MDA-N): > 10 µM
TGI (SN12C renal): > 10 µM
TGI (SK-MEL-2 melanoma): > 10 µM
TGI (LOX IMVI melanoma): > 10 µM
TGI (OVCAR-5 ovarian): > 10 µM
TGI (HCC-2998 colon): > 10 µM

CC1=NN=C(C)C1N=Nc1ccc2nc(C)[nH]c2c1
TGI (SNB-75 CNS): 64.4 µM
TGI (HS 578T breast): 29.4 µM
TGI (K-562 leukemia): > 100 µM
TGI (OVCAR-4 ovarian): > 100 µM
TGI (MDA-N): > 100 µM
TGI (SN12C renal): > 100 µM
TGI (SK-MEL-2 melanoma): 36.3 µM
TGI (LOX IMVI melanoma): > 63.9 µM
TGI (OVCAR-5 ovarian): > 100 µM
TGI (HCC-2998 colon): > 100 µM

O=C/C(=C1/C=Cc2cc([N+](=O)[O-])ccc2S1)c1ccccc1
TGI (SNB-75 CNS): > 100 µM
TGI (HS 578T breast): > 100 µM
TGI (K-562 leukemia): > 100 µM
TGI (OVCAR-4 ovarian): > 100 µM
TGI (MDA-N): > 100 µM
TGI (SN12C renal): > 100 µM
TGI (SK-MEL-2 melanoma): > 100 µM
TGI (LOX IMVI melanoma): > 100 µM
TGI (OVCAR-5 ovarian): > 100 µM
TGI (HCC-2998 colon): > 100 µM

COc1nc(N=P(c2ccccc2)(c2ccccc2)c2ccccc2)cc(=O)n1C
TGI (SNB-75 CNS): > 100 µM
TGI (HS 578T breast): > 100 µM
TGI (K-562 leukemia): > 100 µM
TGI (OVCAR-4 ovarian): > 100 µM
TGI (MDA-N): > 100 µM
TGI (SN12C renal): > 100 µM
TGI (SK-MEL-2 melanoma): > 100 µM
TGI (LOX IMVI melanoma): > 100 µM
TGI (OVCAR-5 ovarian): > 100 µM
TGI (HCC-2998 colon): > 100 µM

O[C@]12C=C(c3nccc4c3[nH]c3ccccc34)[C@@H]3CCN(CCCC/C=C\CC1)C[C@@]31CC3/C=C\CCCCN3[C@H]12 (stereo not given in full)
TGI (SNB-75 CNS): 2.88 µM
TGI (HS 578T breast): 2.9 µM
TGI (K-562 leukemia): 2.84 µM
TGI (OVCAR-4 ovarian): > 25.1 µM
TGI (MDA-N): 1.31 µM
TGI (SN12C renal): 2.84 µM
TGI (SK-MEL-2 melanoma): 0.534 µM
TGI (LOX IMVI melanoma): 0.84 µM
TGI (OVCAR-5 ovarian): 1.83 µM
TGI (HCC-2998 colon): 0.936 µM

O=C1Oc2ccccc2C1C/C(=N\Nc1ccccc1)c1ccccc1O (stereo not given)
TGI (SNB-75 CNS): > 100 µM
TGI (HS 578T breast): > 100 µM
TGI (OVCAR-4 ovarian): > 100 µM
TGI (MDA-N): > 100 µM
TGI (SN12C renal): > 100 µM
TGI (SK-MEL-2 melanoma): > 100 µM
TGI (LOX IMVI melanoma): > 100 µM
TGI (OVCAR-5 ovarian): > 100 µM
TGI (HCC-2998 colon): > 100 µM

CSc1nc(=S)[nH]c2c1c(C)nn2-c1ccccc1
TGI (HS 578T breast): > 100 µM
TGI (K-562 leukemia): 51.9 µM
TGI (OVCAR-4 ovarian): 40.9 µM
TGI (MDA-N): > 100 µM
TGI (SN12C renal): 52.7 µM
TGI (SK-MEL-2 melanoma): 68.5 µM
TGI (LOX IMVI melanoma): > 100 µM
TGI (OVCAR-5 ovarian): > 100 µM
TGI (HCC-2998 colon): > 100 µM

O=c1[nH]nc(Cc2ccccc2)n1/N=C/c1cccs1
TGI (SNB-75 CNS): > 100 µM
TGI (HS 578T breast): > 100 µM
TGI (K-562 leukemia): > 100 µM
TGI (OVCAR-4 ovarian): > 100 µM
TGI (MDA-N): > 100 µM
TGI (SN12C renal): > 100 µM
TGI (SK-MEL-2 melanoma): > 100 µM
TGI (LOX IMVI melanoma): > 100 µM
TGI (OVCAR-5 ovarian): > 100 µM
TGI (HCC-2998 colon): > 100 µM

NS(=O)(=O)c1ccc(NC(=O)N/N=C/c2ccccc2O)cc1
TGI (SNB-75 CNS): > 100 µM
TGI (HS 578T breast): > 100 µM
TGI (K-562 leukemia): > 100 µM
TGI (OVCAR-4 ovarian): > 100 µM
TGI (MDA-N): 70.2 µM
TGI (SN12C renal): > 100 µM
TGI (SK-MEL-2 melanoma): > 100 µM
TGI (LOX IMVI melanoma): > 100 µM
TGI (OVCAR-5 ovarian): > 100 µM
TGI (HCC-2998 colon): > 100 µM

COC(=O)c1ccc2c(c1)CC1(C2)Cc2cc3c(cc2C1)CCC3
TGI (SNB-75 CNS): > 100 µM
TGI (HS 578T breast): > 100 µM
TGI (K-562 leukemia): > 100 µM
TGI (OVCAR-4 ovarian): > 100 µM
TGI (MDA-N): > 100 µM
TGI (SK-MEL-2 melanoma): > 100 µM
TGI (LOX IMVI melanoma): > 100 µM
TGI (OVCAR-5 ovarian): > 100 µM
TGI (HCC-2998 colon): > 100 µM

O=C1CN(c2ccccc2)Cc2nc(Cl)ccc2N1
TGI (SNB-75 CNS): > 100 µM
TGI (HS 578T breast): > 100 µM
TGI (K-562 leukemia): > 100 µM
TGI (OVCAR-4 ovarian): > 100 µM
TGI (MDA-N): > 100 µM
TGI (SN12C renal): > 100 µM
TGI (SK-MEL-2 melanoma): > 100 µM
TGI (LOX IMVI melanoma): > 100 µM
TGI (OVCAR-5 ovarian): > 100 µM
TGI (HCC-2998 colon): > 100 µM

O=C1N=C2SC=C(NC(=S)Nc3ccccc3)N2NC12c1ccccc1-c1ccccc12
TGI (SNB-75 CNS): > 10 µM
TGI (HS 578T breast): > 10 µM
TGI (K-562 leukemia): > 10 µM
TGI (OVCAR-4 ovarian): > 10 µM
TGI (MDA-N): > 10 µM
TGI (SN12C renal): > 10 µM
TGI (LOX IMVI melanoma): > 10 µM
TGI (OVCAR-5 ovarian): > 10 µM
TGI (HCC-2998 colon): > 10 µM
